Measurements: publication PMC10652111, “Zymograph profiling reveals a divergent evolution of sirtuin that may originate from class III enzymes” (The Journal of Biological Chemistry, 2023)

Target: T1, STM1221 (Salmonella enterica, UniProt P0A2F2)
T1 construct: gene cobB; expressed from pET28b in E. coli BL21, nickel-purified
T1 sequence (P0A2F2 1-273): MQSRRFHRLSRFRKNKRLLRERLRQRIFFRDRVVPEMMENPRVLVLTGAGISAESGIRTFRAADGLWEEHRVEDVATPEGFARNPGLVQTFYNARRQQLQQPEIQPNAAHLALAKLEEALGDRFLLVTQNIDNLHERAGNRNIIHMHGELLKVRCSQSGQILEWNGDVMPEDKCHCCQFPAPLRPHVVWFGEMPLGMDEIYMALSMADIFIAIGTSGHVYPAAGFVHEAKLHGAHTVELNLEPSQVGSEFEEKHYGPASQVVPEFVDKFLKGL
Assay: HPLC deacylation assay
Assay type: biochemical
Settings: 1 mM NAD+, 1 mM acylated H3K27 13-mer peptide as co-substrate, 5 uM enzyme, 6 mM MgCl2, pH 8.0, 37 °C

NC(=O)c1ccc[n+]([C@@H]2O[C@H](COP(=O)(O)OP(=O)(O)OC[C@H]3O[C@@H](n4cnc5c(N)ncnc54)[C@H](O)[C@@H]3O)[C@@H](O)[C@H]2O)c1 [NAD^+]
HPLC deacylation assay: The reactions without NAD^+ were used as the negative controls
